Values joined by “and” are separate entries in the source; they are usually repeats but may differ in a detail not shown here. Equal values may be shown once.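 How tested: cells in 96-well plates exposed to compound for 48 hours at five concentrations. Here, GI50 denotes the concentration required for 50% inhibition of growth. The concentration for full growth arrest is given as TGI.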

One test concerns DU-145 prostate. In words: DTP human tumour cell line panel, 48 h.
A word on the GI50: it is the concentration giving 50% growth inhibition. A word on the TGI: it is the concentration at which net growth stops. Regarding `Cn1c2ccccc2c2c(=O)c3ccccc3[nH]c21`, the GI50 was 33.2 µM and the TGI is above 100 µM.

The test system of a further test is DLD-1 colon. In words: DTP human tumour cell line panel, 48 h.
Take `CC1(c2ccccc2)CC(c2ccccc2)=NO1` (stereo not drawn): the TGI is above 100 µM.

As for `COc1cccc(/C=C2\CCC(C)(CN(C)C)C2=O)c1` (stereo not drawn), the TGI is above 100 µM.

In turn, `Cl[Si]1(Cl)Oc2ccccc2O[Si](Cl)(Cl)Oc2ccccc2O1` yielded a TGI above 100 µM.

`C[n+]1c2ccccc2cc2c(CNC(CCCN=C(N)N)C(=O)O)cccc21` (stereo not drawn): the GI50 is 0.481 µM; the TGI is 1.32 µM and 1.74 µM.

`Cc1cc2c(Br)cc(Br)c(O)c2nc1C(=O)c1ccccc1`: the TGI was above 100 µM.

Consider `CC(=O)[O-].CC(=O)[O-].CC(=O)[O-].CC(=O)[O-].[Mo+2].[Mo+2]`, for which the GI50 was above 100 µM and the TGI was above 100 µM.

For the molecule `C=CCC1[C@@H](C(C)(C)C(C(C)=O)C(=O)C(=O)OC)OC(C(C)(C)C)N1C(=O)OC` (stereo partly drawn), the total growth inhibition concentration (TGI) was above 100 µM.

For `CC1(C)OC2COC3(CNO)OC(C)(C)OC3C2O1` (stereo not drawn), the TGI was above 100 µM.

`CCOC(=O)C(=O)Nc1ccccc1C(F)(F)F` came in with a TGI above 100 µM.

In turn, `COc1ccc(Nc2nc3ccccc3nc2-c2cccs2)cc1` registered a TGI above 100 µM.

Turning to `Cc1nnc(N/N=C(/C(=O)C(C#N)c2ccccc2)C(C#N)c2ccccc2)n1N` (stereo not drawn), the TGI amounted to 59.9 µM.

`COc1c(Br)cc(Br)c(OC)c1-c1[nH]c(Br)c(Br)c1Br` showed a TGI of 18.4 µM.

The molecule `CCOC(=O)c1ccc(N[C@@H]2c3cc4c(cc3C(C3=CC(=O)C(=O)C(OC)=C3)[C@H]3C(=O)OCC32)OCO4)cc1` (stereo partly drawn) displayed a TGI above 39.8 µM.

In turn, `CNC(SC)=C1C(=O)OC(C)(C)OC1=O` registered a TGI of 54.2 µM.

In the case of `NC(=O)/C=C/C(=O)O`, the TGI was above 5000 µM.

In turn, `CC(CC(=O)Nc1ccc(NC(=O)CC(C)N=NC(N)=S)cc1)N=NC(N)=S` (stereo not drawn) had a TGI above 100 µM.

`Cc1c(C(=O)CSc2nc3ccccc3c(=O)n2-c2ccccc2)c(=O)n(-c2ccccc2)n1C` showed a TGI above 100 µM.

For `COC(=O)/C(C#N)=C1\CCC(C(=O)OC)N1C` (stereo not drawn), the TGI was above 100 µM.

Take `CC1=C(C(=O)Nc2ccccc2C)C(/C=C/c2ccccc2)C(C(=O)Nc2ccccc2C)=C(C)N1`: the TGI is above 100 µM.

`CC(C)c1ccccc1NC(=O)/C(Cl)=C1/Sc2ccccc2NC1=O` came in with a TGI above 100 µM.

In turn, `CC(=O)OCC1OC(n2cc([N+](=O)[O-])c(=O)[nH]c2=O)C(OC(C)=O)C(OC(C)=O)C1OC(C)=O` (stereo not drawn) had a TGI above 100 µM.

`Cc1cn(C2OC(C)(CO)C(O)C2O)c(=O)[nH]c1=O` (stereo not drawn) registered a TGI above 100 µM.

`O=C1C=C(O)c2[nH]c(=O)ccc2C1=O`: the TGI is above 100 µM.

Regarding `CC1(Cc2ccccc2)NC(=S)NC1=O` (stereo not drawn), the TGI is above 100 µM.

With `Cc1ccc(S(=O)(=O)N/N=C(\c2nc3ccc([N+](=O)[O-])cc3[nH]c2=O)C(O)c2ccccc2Cl)cc1` (stereo not drawn), the TGI was above 100 µM.

Regarding `COC1OC(C)C(OCc2ccccc2)C(OS(=O)(=O)c2ccc(C)cc2)C1OS(=O)(=O)c1ccc(C)cc1` (stereo not drawn), the TGI was above 100 µM.

`O=C1C2=C(c3ccccc31)C(c1ccccc1Cl)N1C(=O)CCSC1=N2` (stereo not drawn): the TGI is above 100 µM.

For the molecule `Cc1ccc2nc3c(Cl)c(C)c(=O)cc-3sc2c1`, the GI50 was 42.6 µM and the TGI is above 100 µM.

In the next test the test system is SNB-78 CNS. In words: DTP human tumour cell line panel, 48 h.
Molecule `CC1(c2ccccc2)CC(c2ccccc2)=NO1` (stereo not drawn) gave a TGI above 100 µM.

`COc1cccc(/C=C2\CCC(C)(CN(C)C)C2=O)c1` (stereo not drawn) had a TGI above 100 µM.

Regarding `C[n+]1c2ccccc2cc2c(CNC(CCCN=C(N)N)C(=O)O)cccc21` (stereo not drawn), the GI50 was 5.8 µM; the TGI was 7.93 µM and 35.5 µM.

Consider `Cc1cc2c(Br)cc(Br)c(O)c2nc1C(=O)c1ccccc1`, for which the TGI was above 100 µM.

For the molecule `CC(=O)[O-].CC(=O)[O-].CC(=O)[O-].CC(=O)[O-].[Mo+2].[Mo+2]`, the GI50 was above 100 µM and the TGI was above 100 µM.

For `C=CCC1[C@@H](C(C)(C)C(C(C)=O)C(=O)C(=O)OC)OC(C(C)(C)C)N1C(=O)OC` (stereo partly drawn), the TGI is above 100 µM.

`CC1(C)OC2COC3(CNO)OC(C)(C)OC3C2O1` (stereo not drawn) yielded a TGI above 100 µM.

`CCOC(=O)C(=O)Nc1ccccc1C(F)(F)F`: the concentration for total growth inhibition (TGI) was above 100 µM.

For `COc1ccc(Nc2nc3ccccc3nc2-c2cccs2)cc1`, the TGI was above 100 µM.

As to `CCOC(=O)/C(=C/c1cccc(OC)c1)N(CC)CC`, the TGI was above 100 µM.

Regarding `Cc1nnc(N/N=C(/C(=O)C(C#N)c2ccccc2)C(C#N)c2ccccc2)n1N` (stereo not drawn), the TGI was above 90 µM.

`COc1c(Br)cc(Br)c(OC)c1-c1[nH]c(Br)c(Br)c1Br` displayed a TGI of 28.8 µM.

The molecule `CCOC(=O)c1ccc(N[C@@H]2c3cc4c(cc3C(C3=CC(=O)C(=O)C(OC)=C3)[C@H]3C(=O)OCC32)OCO4)cc1` (stereo partly drawn) showed a TGI above 54.6 µM.

Take `CNC(SC)=C1C(=O)OC(C)(C)OC1=O`: the TGI is above 100 µM.

`NC(=O)/C=C/C(=O)O`: the TGI is above 5000 µM.

For the molecule `CC(CC(=O)Nc1ccc(NC(=O)CC(C)N=NC(N)=S)cc1)N=NC(N)=S` (stereo not drawn), the TGI was above 100 µM.

Regarding `Cc1c(C(=O)CSc2nc3ccccc3c(=O)n2-c2ccccc2)c(=O)n(-c2ccccc2)n1C`, the TGI was above 100 µM.

For `COC(=O)/C(C#N)=C1\CCC(C(=O)OC)N1C` (stereo not drawn), the TGI was above 100 µM.

On to `CC(=O)OC1COC(n2c(=S)n(-c3ccccc3)c(=O)c3cc(Br)ccc32)C(OC(C)=O)C1OC(C)=O` (stereo not drawn), for which the TGI is above 100 µM.

Turning to `CC1=C(C(=O)Nc2ccccc2C)C(/C=C/c2ccccc2)C(C(=O)Nc2ccccc2C)=C(C)N1`, the TGI was above 100 µM.

Consider `CC(C)c1ccccc1NC(=O)/C(Cl)=C1/Sc2ccccc2NC1=O`, for which the TGI was above 100 µM.

`O=C1C=C(O)c2[nH]c(=O)ccc2C1=O` gave a TGI above 100 µM.

`CC1(Cc2ccccc2)NC(=S)NC1=O` (stereo not drawn) returned a TGI above 100 µM.
